Reference: US20260159512A1, “BCAT2 INHIBITORS” (AGIOS PHARMACEUTICALS, INC., priority 2021, published 2026)

What was measured:
Conditions in all cases: average where tested multiple times
BCAT2 [1] = molecular target: T1, BCAT2 (Homo sapiens, UniProt O15382); assay: BCAT2 in vitro cell inhibition using engineered A549 cells (KMV cell assay, 13C6-KMV by LC-MS/MS); type: cell-based; design: The result was an engineered A549 cell line that expressed endogenous BCAT2; endogenous in cells; host or cells: A549 cells with MUT and BCAT1 knocked out by CRISPR/CAS9; key to BCAT2 Cell Inhibition: A: less than or equal to 0.100 μM; B: greater than 0.100 and less than or equal to 0.500 μM; C: greater than 0.500 and less than or equal to 1.000 μM; d: greater than 1.000 μM; E: no fit
T1 sequence (O15382 28-392): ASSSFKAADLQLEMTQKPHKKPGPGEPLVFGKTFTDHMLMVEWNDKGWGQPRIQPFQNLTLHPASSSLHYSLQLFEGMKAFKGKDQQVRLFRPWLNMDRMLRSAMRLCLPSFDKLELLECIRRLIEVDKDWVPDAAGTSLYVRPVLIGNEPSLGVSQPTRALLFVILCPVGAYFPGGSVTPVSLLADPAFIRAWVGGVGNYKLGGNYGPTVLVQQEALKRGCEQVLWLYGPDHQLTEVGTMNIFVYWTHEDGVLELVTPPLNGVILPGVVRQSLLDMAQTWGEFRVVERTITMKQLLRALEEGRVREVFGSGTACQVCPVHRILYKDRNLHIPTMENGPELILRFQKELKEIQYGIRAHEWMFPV

BCAT2 [2] = molecular target: T1, BCAT2; assay: BCAT2 in vitro enzyme inhibition assay (resazurin/diaphorase-coupled fluorescence); type: biochemical
Method in brief: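 Coupled fluorescence readout: glutamate formed from L-leucine/α-ketoglutarate transamination drives GDH/NAD/diaphorase reduction of resazurin (Ex 540/Em 590). Human BCAT2 was first exposed 1 h at room temperature to compound, top final 100 μM in 3-fold, 10-point series; substrate reaction ran 1 h before SDS quench, in technical duplicate with DMSO max and enzyme-free min controls.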

hBCAT1 = molecular target: T2, hBCAT1 (Homo sapiens, UniProt P54687); assay: BCAT1 in vitro enzyme inhibition assay (resazurin/diaphorase-coupled fluorescence); type: biochemical
T2 sequence (P54687 1-386): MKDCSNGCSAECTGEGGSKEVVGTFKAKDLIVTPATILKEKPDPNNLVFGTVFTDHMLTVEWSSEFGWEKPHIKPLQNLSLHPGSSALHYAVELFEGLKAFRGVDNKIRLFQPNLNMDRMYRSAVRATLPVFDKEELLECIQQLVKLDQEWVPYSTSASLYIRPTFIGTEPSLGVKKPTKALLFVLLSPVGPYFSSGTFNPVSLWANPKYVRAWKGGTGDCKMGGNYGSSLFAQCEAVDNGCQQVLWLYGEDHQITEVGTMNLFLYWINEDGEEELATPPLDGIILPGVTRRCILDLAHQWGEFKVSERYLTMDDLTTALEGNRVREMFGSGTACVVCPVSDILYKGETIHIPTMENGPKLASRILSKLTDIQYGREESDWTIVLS
Method in brief: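 Ten-point, 3-fold compound series (top final 100 μM, delivered 1:50 from 50× DMSO stocks) tested against hBCAT1. Inhibition detected via diaphorase-coupled resazurin fluorescence, duplicate wells, with values from repeated runs averaged.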

With `O=C(NC1COCC(n2c(-c3ccccc3F)nc3cnc(-n4nccn4)cc32)C1)c1ncc(C(F)F)s1` (single isomer, unassigned) [Example 142, 5-(difluoromethyl)-N-(5-(2-(2-fluorophenyl)-6-(2H-1,2,3-triazol-2-yl)-1H-imidazo[4,5-c]pyridin-1-yl)tetrahydro-2H-pyran-3-yl)thiazole-2-carboxamide] the IC50 (BCAT2 [1]) was no more than 100 nM, the IC50 (BCAT2 [2]) was no more than 100 nM and the IC50 (hBCAT1) was less than 500 nM.
`O=C(NC1COCC(n2c(-c3ccccc3F)nc3cnc(-n4nccn4)cc32)C1)c1ncc(C(F)F)s1` (single isomer, unassigned) [Example 143, 5-(difluoromethyl)-N-(5-(2-(2-fluorophenyl)-6-(2H-1,2,3-triazol-2-yl)-1H-imidazo[4,5-c]pyridin-1-yl)tetrahydro-2H-pyran-3-yl)thiazole-2-carboxamide] was tested, and the IC50 (BCAT2 [1]) was 100 to 500 nM, the IC50 (BCAT2 [2]) was 100 to 500 nM and the IC50 (hBCAT1) was greater than 5000 nM.
`O=C(N[C@H]1CCC[C@@H](n2c(C3COCCO3)nc3cnc(-c4nc[nH]n4)cc32)C1)c1ncc(Cl)s1` (single isomer, unassigned) [Example 176] showed an IC50 (BCAT2 [1]) greater than 1000 nM, an IC50 (BCAT2 [2]) of 100 to 500 nM and an IC50 (hBCAT1) of 1000 to 5000 nM.
`CC(C)C(O)c1nc2cnc(-c3nc[nH]n3)cc2n1[C@@H]1CCC[C@H](NC(=O)c2ncc(Cl)s2)C1` (single isomer, unassigned) [Example 183] showed an IC50 (BCAT2 [1]) of 100 to 500 nM, an IC50 (BCAT2 [2]) of no more than 100 nM and an IC50 (hBCAT1) of less than 500 nM.
`CC(C)Cc1nc2cnc(-c3ccccn3)cc2n1[C@@H]1C[C@@H](O)C[C@H](NC(=O)c2ncc(Cl)s2)C1` (single isomer, unassigned) [Example 214] showed an IC50 (BCAT2 [1]) of no more than 100 nM, an IC50 (BCAT2 [2]) of no more than 100 nM and an IC50 (hBCAT1) of less than 500 nM.
In the case of `CO[C@H]1C[C@H](NC(=O)c2ncc(Cl)s2)C[C@H](n2c(-c3ccccc3F)nc3cnc(-c4nc[nH]n4)cc32)C1` (single isomer, unassigned) [Example 218], the IC50 (BCAT2 [1]) is reported as no more than 100 nM, the IC50 (BCAT2 [2]) is reported as no more than 100 nM and the IC50 (hBCAT1) is reported as less than 500 nM.
Work on `CC1(O)[C@@H](NC(=O)c2ncc(Cl)s2)CCC[C@H]1n1c(-c2ccccc2F)nc2cnc(-c3nc[nH]n3)cc21` (single isomer, unassigned) [Example 233] yielded an IC50 (BCAT2 [1]) of 100 to 500 nM, an IC50 (BCAT2 [2]) of no more than 100 nM and an IC50 (hBCAT1) of less than 500 nM.
With `O=C(N[C@H]1C[C@H](O)C[C@@H](n2c(-c3ccccc3F)nc3cnc(-c4ccccn4)cc32)C1)c1ncc(Cl)s1` (single isomer, unassigned) [Example 252] the IC50 (BCAT2 [1]) was no more than 100 nM, the IC50 (BCAT2 [2]) was no more than 100 nM and the IC50 (hBCAT1) was less than 500 nM.
`O=C(N[C@H]1C[C@H](O)C[C@@H](n2c(-c3ccccc3F)nc3cnc(-c4ccn[nH]4)cc32)C1)c1ncc(Cl)s1` (single isomer, unassigned) [Example 258] gave an IC50 (BCAT2 [1]) of no more than 100 nM, an IC50 (BCAT2 [2]) of no more than 100 nM and an IC50 (hBCAT1) of less than 500 nM.
In the case of `CNC(=O)c1cc2nc(CC(C)C)n([C@@H]3CCC[C@H](NC(=O)c4ncc(Cl)s4)[C@H]3O)c2cn1` (single isomer, unassigned) [Example 280], the IC50 (BCAT2 [1]) is reported as 500 to 1000 nM, the IC50 (BCAT2 [2]) is reported as no more than 100 nM and the IC50 (hBCAT1) is reported as 1000 to 5000 nM.
`CC(C)Cc1nc2cnc(-n3nccn3)cc2n1[C@@H]1C[C@@H](O)C[C@H](NC(=O)c2ccc(Cl)s2)C1` (single isomer, unassigned) [Example 395] gave an IC50 (BCAT2 [1]) of no more than 100 nM, an IC50 (BCAT2 [2]) of no more than 100 nM and an IC50 (hBCAT1) of less than 500 nM.
With `CO[C@H]1C[C@H](NC(=O)c2ncc(Cl)s2)C[C@H](n2c(CC(C)C)nc3cnc(-c4ncc(C)o4)cc32)C1` (single isomer, unassigned) [Example 427] the IC50 (BCAT2 [1]) was 100 to 500 nM, the IC50 (BCAT2 [2]) was no more than 100 nM and the IC50 (hBCAT1) was 500 to 1000 nM.
Compound `CO[C@H]1C[C@H](NC(=O)c2ccc(Cl)s2)C[C@H](n2c(CC(C)C)nc3cnc(-c4ncccn4)cc32)C1` (single isomer, unassigned) [Example 437] has an IC50 (BCAT2 [1]) of no more than 100 nM, an IC50 (BCAT2 [2]) of no more than 100 nM and an IC50 (hBCAT1) of less than 500 nM.
Compound `CO[C@@H]1C[C@H](NC(=O)c2ncc(Cl)s2)C[C@H](n2c(CC(C)C)nc3cnc(-n4nccn4)cc32)C1` (single isomer, unassigned) [Example 439] has an IC50 (BCAT2 [1]) of no more than 100 nM, an IC50 (BCAT2 [2]) of no more than 100 nM and an IC50 (hBCAT1) of less than 500 nM.
In the case of `CO[C@H]1C[C@H](NC(=O)c2ncc(Cl)s2)C[C@H](n2c(CC(C)(C)C)nc3cnc(-c4ccccn4)cc32)C1` (single isomer, unassigned) [Example 442], the IC50 (BCAT2 [1]) is reported as 100 to 500 nM, the IC50 (BCAT2 [2]) is reported as no more than 100 nM and the IC50 (hBCAT1) is reported as 1000 to 5000 nM.
For `N#CC1CC(NC(=O)c2ncc(Cl)s2)CC(n2c(-c3ccccc3F)nc3cnc(-c4nc[nH]n4)cc32)C1` (single isomer, unassigned) [Example 451, 5-chloro-N-(3-cyano-5-(2-(2-fluorophenyl)-6-(1H-1,2,4-triazol-3-yl)-1H-imidazo[4,5-c]pyridin-1-yl)cyclohexyl)thiazole-2-carboxamide], the IC50 (BCAT2 [1]) was 100 to 500 nM, the IC50 (BCAT2 [2]) was no more than 100 nM and the IC50 (hBCAT1) was less than 500 nM.
Work on `NC1CC(NC(=O)c2ncc(Cl)s2)CC(n2c(-c3ccccc3F)nc3cnc(-c4nc[nH]n4)cc32)C1` (single isomer, unassigned) [Example 455, N-(3-amino-5-(2-(2-fluorophenyl)-6-(1H-1,2,4-triazol-3-yl)-1H-imidazo[4,5-c]pyridin-1-yl)cyclohexyl)-5-chlorothiazole-2-carboxamide] yielded an IC50 (BCAT2 [1]) of 100 to 500 nM, an IC50 (BCAT2 [2]) of no more than 100 nM and an IC50 (hBCAT1) of less than 500 nM.
`CC(C)Cc1nc2cnc(-c3ccn(C(F)F)n3)cc2n1[C@@H]1CC(O)C[C@H](NC(=O)c2ncc(Cl)s2)C1` (stereo in doubt) [Example 213, 5-chloro-N-((1R,3S,5R)-3-(6-(1-(difluoromethyl)-1H-pyrazol-3-yl)-2-isobutyl-1H-imidazo[4,5-c]pyridin-1-yl)-5-hydroxycyclohexyl)thiazole-2-carboxamide] showed an IC50 (BCAT2 [1]) of 500 to 1000 nM, an IC50 (BCAT2 [2]) of no more than 100 nM and an IC50 (hBCAT1) of 500 to 1000 nM.
`CC(C)Cc1nc2cnc(-c3cccc(F)n3)cc2n1[C@H]1C[C@H](O)C[C@@H](NC(=O)c2ncc(Cl)s2)C1` (stereo in doubt) [Example 385, 5-chloro-N-((1S,3R,5R)-3-(6-(6-fluoropyridin-2-yl)-2-isobutyl-1H-imidazo[4,5-c]pyridin-1-yl)-5-hydroxycyclohexyl)thiazole-2-carboxamide] gave an IC50 (BCAT2 [1]) of 100 to 500 nM, an IC50 (BCAT2 [2]) of no more than 100 nM and an IC50 (hBCAT1) of less than 500 nM.
`CC(C)Cc1nc2cnc(-c3ncccn3)cc2n1[C@@H]1C[C@@H](O)C[C@H](NC(=O)c2ncc(Cl)s2)C1` (stereo in doubt) [Example 397, 5-chloro-N-((1R,3S,5S)-3-hydroxy-5-(2-isobutyl-6-(pyrimidin-2-yl)-1H-imidazo[4,5-c]pyridin-1-yl)cyclohexyl)thiazole-2-carboxamide] was tested, and the “BCAT2 Cell Inhibition” value (BCAT2 [1]) was “E”, the IC50 (BCAT2 [2]) was greater than 1000 nM and the IC50 (hBCAT1) was 1000 to 5000 nM.
For `CO[C@@H]1C[C@@H](NC(=O)c2ccc(Cl)s2)C[C@@H](n2c(-c3ccccc3F)nc3cnc(-c4nc[nH]n4)cc32)C1` (stereo in doubt) [Example 412, 5-chloro-N-((1S,3R,5R)-3-(2-(2-fluorophenyl)-6-(1H-1,2,4-triazol-3-yl)-1H-imidazo[4,5-c]pyridin-1-yl)-5-methoxycyclohexyl)thiophene-2-carboxamide], the IC50 (BCAT2 [1]) was no more than 100 nM, the IC50 (BCAT2 [2]) was no more than 100 nM and the IC50 (hBCAT1) was less than 500 nM.
For `CO[C@@H]1C[C@@H](NC(=O)c2ncc(Cl)s2)C[C@@H](n2c(CC(C)C)nc3cnc(-c4nc[nH]n4)cc32)C1` (stereo in doubt) [Example 414, 5-chloro-N-((1S,3R,5R)-3-(2-isobutyl-6-(1H-1,2,4-triazol-3-yl)-1H-imidazo[4,5-c]pyridin-1-yl)-5-methoxycyclohexyl)thiazole-2-carboxamide], the IC50 (BCAT2 [1]) was no more than 100 nM, the IC50 (BCAT2 [2]) was no more than 100 nM and the IC50 (hBCAT1) was less than 500 nM.
For `CO[C@@H]1C[C@@H](NC(=O)c2ncc(Cl)s2)C[C@@H](n2c(-c3ccccc3F)nc3cnc(-n4cncn4)cc32)C1` (stereo in doubt) [Example 416, 5-chloro-N-((1S,3R,5R)-3-(2-(2-fluorophenyl)-6-(1H-1,2,4-triazol-1-yl)-1H-imidazo[4,5-c]pyridin-1-yl)-5-methoxycyclohexyl)thiazole-2-carboxamide], the IC50 (BCAT2 [1]) was no more than 100 nM, the IC50 (BCAT2 [2]) was no more than 100 nM and the IC50 (hBCAT1) was 1000 to 5000 nM.
